The test system of this test is Plasmodium falciparum. Briefly: GSK_TCMDC: Inhibition of Plasmodium falciparum 3D7 in whole erythrocytes, using parasite LDH activity as an index of growth. Conditions: Plasmodium falciparum, 3D7. Type of test: functional, organism-based.
On to `COc1ccc(Nc2nc(N/N=C/c3cc(Br)ccc3O)nc(Nc3ccc([N+](=O)[O-])cc3)n2)cc1`, for which the XC50 amounted to 222 nM.

Molecule `CCNc1cc(C(=O)N[C@@H](Cc2ccccc2)[C@H](O)CN[C@H]2CCc3ccccc32)cc(N2CCCC2=O)c1` had an XC50 of 295 nM. Under `Cc1[nH]c(C)c(-c2ccc(Oc3ccc(F)cc3)cc2)c(=O)c1Br` stands 54.9 nM; under `COc1nc2c(CCN3CC[C@H](NCc4cc(C#N)c5c(c4)CCO5)[C@H](O)C3)ccnc2cc1F`, 350 nM. Molecule `COc1ccc(CN2CCC2=O)c(OC)c1` gave an XC50 of 122 nM. In turn, `COc1cc(Cc2cnc(N)nc2N)cc(OC)c1OCCCCC(=O)O` registered an XC50 of 1140 nM.

Turning to `Cc1cccc2nc(-c3ccc(-c4cccc(CN5CCC(N)C5)c4)s3)[nH]c12` (configuration not stated), the XC50 amounted to 773 nM. In the case of `CC(C)(C)OC(=O)n1cc(C2CCN(CCCC34CCCc5cccc(c53)NC4=O)CC2)c2ccncc21` (configuration not stated) it was 876 nM; in that of `O=C(NC1CCCCCC1)[C@@H]1CCCN1C(=O)c1ccc(O)c(-c2ccc(Cl)c(Cl)c2)c1`, 345 nM.

The molecule `CCOC(=O)c1ccc(NC(=O)Nc2cccc(-c3ccc(-c4nc5ccccc5[nH]4)cc3)c2)cc1` came in with an XC50 of 212 nM. For `COc1ccc2nccc([C@@H](O)CN3CCC(NC(=O)c4cc5c(F)cc(F)cc5[nH]4)CC3)c2n1`, the XC50 stood at 1390 nM. Under `COc1cc(OC)c(NC(=O)Nc2ccnc3ccccc23)cc1Cl` stands 751 nM. `N=c1ccn(CC(=NO)c2ccc(Cl)c(Cl)c2)cc1` yielded an XC50 of 943 nM. In the case of `COc1ccc(CNCc2ccc(F)cc2)cc1-c1ccc(S(=O)(=O)NCCN2CCCC2)c(C)c1` it was 734 nM; in that of `N=C(N)NN=Cc1ccccc1OCc1ccccc1Cl`, 718 nM. Under `CCOC(=O)c1ccc(NCc2ccccn2)cc1` stands 626 nM; under `COc1c(OC)c(OC)c2ccccc2c1CNCCCCCCNCc1c(OC)c(OC)c(OC)c2ccccc12`, 759 nM; under `Nc1cccc(CNCc2cccc(-c3cccc(-c4nc5cc(F)ccc5[nH]4)c3)c2)c1`, 692 nM. Under `CN(C)CC1CCCN1Cc1ccccc1-c1cnn(C)c(=O)c1Oc1cccc(C#N)c1` (configuration not stated) stands 1340 nM; under `Cc1ccc(S(=O)(=O)N(CCCNCc2cccc(O)c2)c2ccccc2)cc1`, 767 nM.

As for `COC(=O)c1cc(OC)c(OC)cc1NC(=O)NC12CC3CC(CC(C3)C1)C2`, the XC50 came out at 879 nM. In the case of `COc1ccc(CN2CCCC(C(=O)c3ccc(C(F)(F)F)cc3)C2)c(O)c1` (configuration not stated) it was 849 nM; in that of `CC(C)C[C@@H](/C=N/N1CCOC1=O)NC(=O)[C@H](CC(C)C)NC(=O)c1ccc(F)cc1`, 1170 nM; in that of `COc1ccc(CCNCCCCCNCCc2ccc(Cl)cc2)cc1OC`, 741 nM.

In turn, `Cc1cc(-c2cnc(N)c(-c3ccc(N4CCN(C)CC4)nc3)c2)cc(C)c1O` registered an XC50 of 1400 nM. Under `CCN(CC)CC#Cc1ccc2[nH]c(C)c(Cl)c(=O)c2c1` stands 702 nM. Under `O=C(CC1NC(=O)c2ccccc21)Nc1ccc(-c2ccc(-c3nc4cc(C(F)(F)F)ccc4[nH]3)cc2)cc1` (configuration not stated) stands 470 nM; under `NOCCCCOc1cc(Cl)c(Cl)cc1Cl`, 175 nM; under `Cc1ccc(CC(C)NCC(O)c2cccc(C#N)c2)cc1` (configuration not stated), 944 nM. In the case of `CC(C)OCCCNC(=O)c1nc(-c2cccc(C(F)(F)F)c2)sc1C(C)C` it was 1160 nM.

`Cc1ccccc1Nc1nc(NCCCO)c2ccccc2n1` had an XC50 of 407 nM.

Consider `CCOC(=O)c1c(-c2ccccc2)c(C(=O)OCC)n2ccccc12`, for which the XC50 stood at 614 nM. Turning to `COC(=O)c1cccc(CNCc2cccc(-c3ccc(-c4nc5cccc(C)c5[nH]4)cc3)c2)c1`, the XC50 stood at 322 nM.

Turning to `N#Cc1ccc(N(CCOc2ccc(Cl)cc2)Cc2ccccc2C(F)(F)F)cc1C(F)(F)F`, the XC50 was 656 nM.

`CCN(CC)CCCNc1c2ccccc2nc2ccccc12` showed an XC50 of 753 nM. Under `CCN1CCN(c2ccc(NC(=O)c3cc4c(C)nn(-c5ccccc5)c4s3)cc2C)CC1` stands 757 nM; under `COc1ccc(-c2cccc(NC(=O)c3cccc(Cl)c3)c2)cc1CN(C)CCN(C)C`, 813 nM. Consider `CC(=O)Nc1ccc(OCCN(Cc2ccccc2C(F)(F)F)c2ccc(C#N)c(C(F)(F)F)c2)cc1`, for which the XC50 came to 443 nM.

`NC(=O)c1cc2nc(Nc3ccc(F)cc3)nc(NC3CCC3)c2[nH]1` yielded an XC50 of 195 nM. The molecule `Cc1noc(C)c1-c1cccc(CNCc2cccc(-c3cccc(-c4nc5cc(F)ccc5[nH]4)c3)c2)c1` came in with an XC50 of 176 nM. In the case of `Cc1cccc(CN2CCC(C(=O)Nc3ccc(-c4nc5ccccc5[nH]4)cc3)CC2)n1` it was 919 nM; in that of `Cc1[nH]c2ccc(O)cc2c1C1CCN(CC2CCC(NC(=O)/C=C/c3ccc(Cl)c(Cl)c3)CC2)CC1` (configuration not stated), 764 nM.

`COC(=O)c1cccc(CNCc2cccc(-c3cccc(-c4nc5cc(F)ccc5[nH]4)c3)c2)c1` yielded an XC50 of 129 nM. Under `Cc1[nH]c2cc(Cl)ccc2c1C1=CCN(CCCCC2(C)C(=O)Nc3c(F)cccc32)CC1` (configuration not stated) stands 843 nM; under `CCC[C@@H]([C@@H](CC1CCCCC1)C(=O)N[C@H](C(=O)Nc1nccs1)C(C)(C)SC)N(O)C=O`, 152 nM; under `CC(C)NC(=N)NN=Cc1ccc(Cl)c(Cl)c1`, 534 nM. Molecule `Cc1cnc(C[S+]([O-])c2nc3cc(C(F)(F)F)ccc3[nH]2)cc1OCc1ccccc1` (configuration not stated) came in with an XC50 of 742 nM. As for `CN(C)CCOc1ccc2c(c1)CN(C)CC2c1ccccc1` (configuration not stated), the XC50 was 1110 nM. In the case of `COC(=O)c1ccc2nc(-c3cc(OC)c(O)c(C(=O)NC4CCN(Cc5ccccc5)CC4)c3)[nH]c2c1` it was 1180 nM; in that of `CC(C(=O)NC1CCN(c2ccnc(Nc3ccc(F)cc3)n2)C1)c1ccc(Cl)cc1` (configuration not stated), 860 nM.

In turn, `CCOC(=O)N1CCN(CCCNc2c3ccccc3nc3ccccc23)CC1` yielded an XC50 of 1010 nM.

Turning to `Cc1cccc2nc(-c3ccc(-c4ccc(CN5CCCCC5)cc4)cc3)[nH]c12`, the XC50 was found to be 589 nM. In the case of `COc1ccc(CNC(=O)c2cnc3c(O)cccc3c2Nc2cccc(NC(=O)c3ccc(-c4ccccc4)cc3)c2)cc1` it was 941 nM; in that of `Fc1cccc(C=NN=c2cc[nH]c3ccccc23)c1`, 839 nM.

`COc1ccc(CNC(=O)c2cnc3cc(-c4c(C)noc4C)ccc3c2Nc2ccccc2C(C)(C)C)cc1` returned an XC50 of 1300 nM.

Molecule `O=C(c1cc(C(=O)NCc2ccc(Cl)cc2)c(=O)n(Cc2ccc(Cl)cc2)c1)c1cc(Cl)ccc1O` had an XC50 of 1400 nM. Turning to `CN1CCC(NCc2cccc(-c3ccc(S(=O)(=O)NCCc4ccccn4)c(F)c3)c2)CC1`, the XC50 came out at 918 nM. Under `O=C(CCc1ccccc1)NC(c1ccc(Cl)cc1)c1ccc2cccnc2c1O` (configuration not stated) stands 847 nM; under `CCN(CC)CCCC(C)N/C(=N\c1ccccc1Br)Nc1ccc(C#N)cc1O` (configuration not stated), 1040 nM; under `CCOC(=O)c1c(C)n(C2CCCCCC2)c2cc(Br)c(O)cc12`, 1200 nM. In the case of `Nc1ncc(-c2ccc3[nH]ccc3c2)c2ccc(-c3ccncc3)cc12` it was 542 nM; in that of `CCN(CC)/C(=N/C(=N)Nc1ccc(Cl)c(Cl)c1)NCCCCCCN/C(=N\C(=N)Nc1ccc(Cl)c(Cl)c1)N(CC)CC`, 761 nM; in that of `S=C(Nc1cccc(Cl)c1)NC1CCN(c2ccnc3cc(Cl)ccc23)C1` (configuration not stated), 154 nM. In the case of `O=C(c1ccccc1F)N(Cc1ccc(Cl)cc1)c1ccccn1` it was 1020 nM; in that of `CCCCCCCN(Cc1ccc(OC(C)(C)C(=O)OCC)cc1)C(=O)Nc1ccc(Cl)cc1OCC`, 817 nM; in that of `Cn1nccc1C(=O)NCCNCc1ccc(-c2ccc(-c3nc4cc(C(F)(F)F)ccc4[nH]3)s2)cc1`, 186 nM.

Consider `COc1ccc2nccc([C@@H](O)CN3CCC(NCCOc4ccccc4[N+](=O)[O-])CC3)c2c1`, for which the XC50 came out at 384 nM. Turning to `CCCc1cc(C(=O)N[C@@H](Cc2ccccc2)[C@H](O)CNC2CCOCC2)c(F)c(N2CCCCS2(=O)=O)c1`, the XC50 is 166 nM. In the case of `Cc1cccc2nc(-c3ccc(-c4cccc(NC(=O)c5ccncc5)c4)cc3)[nH]c12` it was 839 nM; in that of `CCC[C@@H]([C@@H](CC1CCCCC1)C(=O)N[C@H](C(=O)Nc1nccs1)[C@H](C)O)N(O)C=O`, 148 nM.

As for `CC1(C)NC(N)=NC(=N)N1OCCSc1ccccc1`, the XC50 was determined as 3.2 nM. Turning to `COc1cc(NC(=O)CCCCCCCCN2CCN(C)CC2)c2ncccc2c1`, the XC50 amounted to 891 nM.

As for `CN1CCN(CC(=O)Nc2ccc(-c3cccc(-c4nc5cc(F)ccc5[nH]4)c3)cc2)CC1`, the XC50 was found to be 832 nM. In the case of `CN1CCN(CCCN(Cc2ccc(-c3ccc(CNCc4ccc5c(c4)OCO5)cc3)cc2)C(=O)Nc2ccccc2)CC1`, the XC50 worked out at 707 nM. In turn, `Cc1cc(N[C@@H](Cc2ccccc2)C(=O)Nc2ccccc2)nc(NCCc2cccs2)n1` showed an XC50 of 796 nM. Consider `COc1ccc(CNCc2cccc(-c3ccc(-c4nc5cccc(C)c5[nH]4)s3)c2)cc1`, for which the XC50 was found to be 263 nM. Molecule `O=S(=O)(NCCN1CCCC1)c1ccc(-c2ccc(CNCc3ccccc3)cc2)s1` registered an XC50 of 849 nM.

For the molecule `COc1ccc(Cl)cc1-c1nc(C(=O)NCCN2CCCCC2)c(C(C)C)s1`, the XC50 was determined as 753 nM.

`FC(F)(F)c1ccc2[nH]c(-c3ccc(-c4cccc(CNCc5cnn(-c6ccccc6)n5)c4)cc3)nc2c1` had an XC50 of 652 nM.

For `CC(C)(C)C(=O)Nc1c(-c2cc(=O)oc3cc4c(cc23)CCC4)oc2ccccc12`, the XC50 stood at 1260 nM. Under `N#Cc1ccc2c(c1)CN(C1CCC(NC(=O)c3cc(-c4ccc(Cl)cc4)cs3)CC1)CCC2` (configuration not stated) stands 956 nM.

Turning to `OC[C@H](Nc1nc(C(Oc2ccccc2)c2ccccc2)nc2[nH]ncc12)c1ccccc1` (some centres not stated), the XC50 was found to be 854 nM.

`CC(=O)Nc1nc(C(=O)Nc2ccc(-c3ccc(-c4nc5cc(F)ccc5[nH]4)cc3)cc2)cs1` returned an XC50 of 460 nM. As to `CCCC(C)NC(=O)c1cnn(-c2ccc(C(C)(C)C)cc2)c1OCc1ccc(Br)cc1` (configuration not stated), the XC50 is 1060 nM. Under `Cc1ccc(S(=O)(=O)NC2CCN(CCNC(=O)Nc3cc(C)nc4ccccc34)C2)cc1` (configuration not stated) stands 1040 nM. In the case of `O=[N+]([O-])c1ccc(Oc2ccccc2CNCC2CCN(CC3CCCCC3)CC2)cc1` it was 903 nM; in that of `CCCC(=O)c1cnc2c(OCCCc3c[nH]cn3)cccc2c1Nc1c(C)cccc1C`, 338 nM.

(Values after ChEMBL document CHEMBL1157539, “Thousands of chemical starting points for antimalarial lead identification” (Nature, 2010).)
